Values of other authors as cited in paper PMC3694611 (Journal of natural products, 2012).

Experiments:
[1] = in words; ref [ii]
Plasmodium falciparum = details: in words; ref [1a]

In the case of dolastatin-15, the anticancer potency [1] is listed as “exceedingly potent”.
For Gallinamide A, the “activity against the malarial parasite Plasmodium falciparum” value (Plasmodium falciparum) is listed as “moderately active”.
